According to patent publication US7626031B2, “Substituted 3-(diarylmethylene)indolin-2-ones and methods of their use” (Symphony Evolution, Inc., priority 2002, dated 2009):

Tests used:
[1] = target: T1, KDR (baculovirus expressed human KDR kinase domain D807-V1356) (Homo sapiens, UniProt P35968); assay: biochemical
T1 construct: human KDR kinase domain D807-V1356; host or cells: baculovirus expression system
Outline: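 Baculovirus human KDR kinase domain (D807–V1356) with ATP near its KM; 10-point dose-response, 4 h at ambient temperature. Activity taken as percent ATP remaining, detected by luciferase–luciferin chemiluminescence.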

EphA2 = EphA2 (Homo sapiens, UniProt P29317); assay: Kinase assay, EphA2 (33P-ATP incorporation or luciferase-coupled ATP consumption); type: biochemical
Outline: (§1)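 Two formats used: luciferase/luciferin chemiluminescence of ATP consumed with pEY, or radiometric 33P transfer to plate-bound MBP or pEY read by scintillation.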

Flt-1 = Flt-1 (Homo sapiens, UniProt P17948); assay: Kinase assay, Flt-1 (33P-ATP incorporation or luciferase-coupled ATP consumption); type: biochemical; details: read-out: Flt1 IC50
Protocol: Kinase assays were performed by measurement of incorporation of γ-^33P ATP into immobilized myelin basic protein (MBP). […] Plates were washed 3× with 100 μl TBS. […] Compound dilutions were performed in DMSO and added to assay wells to a final DMSO concentration of 1%. Each data point was measured in duplicate, and at least two duplicate assays were performed for each individual compound determination. Enzyme was added to final concentrations of 10 nM or 20 nM, for example. A mixture of unlabeled ATP and γ-^33P ATP was added to start the reaction (2×10^6 cpm of γ-^33P ATP per well (3000 Ci/mmole) and either 10 μM or 30 μM unlabeled ATP, typically. The reactions were carried out for 1 hour at room temperature with shaking. Plates were washed 7× with TBS, followed by the addition of 50 μl/well scintillation fluid (Wallac). Plates were read using a Wallac Trilux counter. This is only one format of such assays, various other formats are possible, as known to one of ordinary skill in the art.
Tyrosine kinase activity is determined by 1) measurement of kinase-dependent ATP consumption by in the presence of a generic substrate such as, polyglutamic acid, tyrosine, 4:1 (pEY), by luciferase/luciferin-mediated chemiluminescence or; 2) incorporation of radioactive phosphate derived from ^33P-ATP into a generic substrate which has been adsorbed onto the well surface of polystyrene microtiter plates. Phosphorylated substrate products are quantified by scintillation spectrometry.
(§2) Kinase activity and compound inhibition are investigated using one or more assay formats. The ATP concentrations for each assay are selected to be close to the Michaelis-Menten constant (KM) for each individual kinase. Dose-response experiments are performed at 10 different inhibitor concentrations in a 384-well plate format. […] Exemplary kinase assays are described below. KDR Assay

EGFR = EGFR (Homo sapiens, UniProt P00533); assay: Kinase assay, EGFR (33P-ATP incorporation or luciferase-coupled ATP consumption); type: biochemical
Outline: as §1

PDGFR alpha = PDGFR alpha (Homo sapiens, UniProt P16234); assay: Kinase assay, PDGFR alpha (33P-ATP incorporation or luciferase-coupled ATP consumption); type: biochemical; details: read-out: PDGF-R-A IC50
Outline: as §1

Fyn = Fyn (Homo sapiens, UniProt P06241); assay: Kinase assay, Fyn; type: biochemical
Protocol: as §2

IRK = IRK (Homo sapiens, UniProt P06213); assay: Kinase assay, IRK; type: biochemical
Protocol: as §2

Flt-1, sequence (P17948 27-1338, species assumed): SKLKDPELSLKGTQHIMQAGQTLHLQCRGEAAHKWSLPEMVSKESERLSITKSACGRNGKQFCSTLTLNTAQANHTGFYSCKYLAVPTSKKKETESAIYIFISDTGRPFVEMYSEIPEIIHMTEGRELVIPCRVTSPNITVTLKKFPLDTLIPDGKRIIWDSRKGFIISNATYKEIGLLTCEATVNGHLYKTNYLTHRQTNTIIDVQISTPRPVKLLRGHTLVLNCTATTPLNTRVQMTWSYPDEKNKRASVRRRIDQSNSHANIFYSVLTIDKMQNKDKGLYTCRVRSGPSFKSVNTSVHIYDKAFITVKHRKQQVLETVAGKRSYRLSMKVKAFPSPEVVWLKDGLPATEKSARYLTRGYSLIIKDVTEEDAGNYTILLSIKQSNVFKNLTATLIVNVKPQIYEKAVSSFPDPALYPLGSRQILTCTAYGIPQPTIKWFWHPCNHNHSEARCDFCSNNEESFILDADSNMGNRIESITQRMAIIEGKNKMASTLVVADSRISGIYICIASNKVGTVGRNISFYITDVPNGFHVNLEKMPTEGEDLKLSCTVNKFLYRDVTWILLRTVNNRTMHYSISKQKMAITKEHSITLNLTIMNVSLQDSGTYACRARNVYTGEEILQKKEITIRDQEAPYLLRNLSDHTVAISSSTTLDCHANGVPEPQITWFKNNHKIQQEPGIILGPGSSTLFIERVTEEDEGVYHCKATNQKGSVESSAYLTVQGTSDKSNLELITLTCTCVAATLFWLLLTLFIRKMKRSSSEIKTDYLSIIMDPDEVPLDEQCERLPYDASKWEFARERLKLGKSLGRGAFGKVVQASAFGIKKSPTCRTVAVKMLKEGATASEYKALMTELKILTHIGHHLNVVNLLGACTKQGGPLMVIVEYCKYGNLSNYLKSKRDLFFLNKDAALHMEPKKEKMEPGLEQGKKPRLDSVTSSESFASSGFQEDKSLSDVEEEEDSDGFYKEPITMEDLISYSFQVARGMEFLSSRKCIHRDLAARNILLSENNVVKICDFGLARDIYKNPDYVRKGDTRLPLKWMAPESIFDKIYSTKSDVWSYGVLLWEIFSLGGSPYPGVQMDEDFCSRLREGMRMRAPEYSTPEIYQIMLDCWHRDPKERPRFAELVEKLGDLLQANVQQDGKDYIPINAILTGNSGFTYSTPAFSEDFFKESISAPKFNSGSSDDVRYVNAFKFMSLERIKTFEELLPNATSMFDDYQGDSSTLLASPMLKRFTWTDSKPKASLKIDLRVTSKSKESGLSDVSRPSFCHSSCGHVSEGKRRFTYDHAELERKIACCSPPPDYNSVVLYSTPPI
EGFR, sequence (P00533 25-1210, species assumed): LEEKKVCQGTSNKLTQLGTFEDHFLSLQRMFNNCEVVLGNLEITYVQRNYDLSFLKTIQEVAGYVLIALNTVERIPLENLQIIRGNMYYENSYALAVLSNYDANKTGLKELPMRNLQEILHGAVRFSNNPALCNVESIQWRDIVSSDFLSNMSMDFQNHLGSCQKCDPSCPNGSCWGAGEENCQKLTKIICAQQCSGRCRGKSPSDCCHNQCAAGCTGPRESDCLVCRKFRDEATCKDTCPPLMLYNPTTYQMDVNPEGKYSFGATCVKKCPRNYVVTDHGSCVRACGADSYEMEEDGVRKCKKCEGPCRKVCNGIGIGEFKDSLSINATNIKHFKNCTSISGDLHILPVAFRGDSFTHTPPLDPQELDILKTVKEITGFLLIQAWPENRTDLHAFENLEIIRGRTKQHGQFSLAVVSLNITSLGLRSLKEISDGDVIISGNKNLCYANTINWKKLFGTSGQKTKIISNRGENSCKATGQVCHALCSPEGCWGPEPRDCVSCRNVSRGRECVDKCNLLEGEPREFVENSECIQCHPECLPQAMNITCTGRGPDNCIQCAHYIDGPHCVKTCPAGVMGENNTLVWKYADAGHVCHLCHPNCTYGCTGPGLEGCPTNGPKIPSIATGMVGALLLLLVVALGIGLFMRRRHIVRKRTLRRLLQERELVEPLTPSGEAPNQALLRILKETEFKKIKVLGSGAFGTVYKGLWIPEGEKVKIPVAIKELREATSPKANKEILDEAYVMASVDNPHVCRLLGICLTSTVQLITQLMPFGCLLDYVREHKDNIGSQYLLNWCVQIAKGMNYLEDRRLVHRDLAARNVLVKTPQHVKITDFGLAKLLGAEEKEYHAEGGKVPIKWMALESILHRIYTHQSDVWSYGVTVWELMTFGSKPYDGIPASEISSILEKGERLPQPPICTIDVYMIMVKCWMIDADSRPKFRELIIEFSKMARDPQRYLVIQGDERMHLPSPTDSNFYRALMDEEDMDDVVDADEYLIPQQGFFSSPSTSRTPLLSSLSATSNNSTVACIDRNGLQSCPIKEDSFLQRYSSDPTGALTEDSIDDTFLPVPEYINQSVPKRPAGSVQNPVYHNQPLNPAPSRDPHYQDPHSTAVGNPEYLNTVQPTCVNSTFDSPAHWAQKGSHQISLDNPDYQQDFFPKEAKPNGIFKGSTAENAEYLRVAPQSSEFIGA
Fyn, sequence (P06241 whole entry, species assumed): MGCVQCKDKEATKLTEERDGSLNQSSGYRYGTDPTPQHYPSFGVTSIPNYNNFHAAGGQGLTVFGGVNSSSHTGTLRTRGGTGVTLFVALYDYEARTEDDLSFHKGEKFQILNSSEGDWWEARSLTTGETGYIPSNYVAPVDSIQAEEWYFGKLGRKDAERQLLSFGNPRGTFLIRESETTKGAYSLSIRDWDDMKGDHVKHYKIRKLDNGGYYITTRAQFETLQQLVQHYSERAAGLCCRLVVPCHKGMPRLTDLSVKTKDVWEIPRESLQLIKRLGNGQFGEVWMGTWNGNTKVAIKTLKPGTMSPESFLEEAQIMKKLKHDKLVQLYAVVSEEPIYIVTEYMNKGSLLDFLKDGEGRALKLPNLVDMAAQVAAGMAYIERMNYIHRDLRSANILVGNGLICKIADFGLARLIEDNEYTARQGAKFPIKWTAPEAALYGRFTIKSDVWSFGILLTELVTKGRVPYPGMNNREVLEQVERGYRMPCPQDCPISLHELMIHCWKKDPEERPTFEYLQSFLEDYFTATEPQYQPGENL
PDGFR alpha, sequence (P16234 24-1089): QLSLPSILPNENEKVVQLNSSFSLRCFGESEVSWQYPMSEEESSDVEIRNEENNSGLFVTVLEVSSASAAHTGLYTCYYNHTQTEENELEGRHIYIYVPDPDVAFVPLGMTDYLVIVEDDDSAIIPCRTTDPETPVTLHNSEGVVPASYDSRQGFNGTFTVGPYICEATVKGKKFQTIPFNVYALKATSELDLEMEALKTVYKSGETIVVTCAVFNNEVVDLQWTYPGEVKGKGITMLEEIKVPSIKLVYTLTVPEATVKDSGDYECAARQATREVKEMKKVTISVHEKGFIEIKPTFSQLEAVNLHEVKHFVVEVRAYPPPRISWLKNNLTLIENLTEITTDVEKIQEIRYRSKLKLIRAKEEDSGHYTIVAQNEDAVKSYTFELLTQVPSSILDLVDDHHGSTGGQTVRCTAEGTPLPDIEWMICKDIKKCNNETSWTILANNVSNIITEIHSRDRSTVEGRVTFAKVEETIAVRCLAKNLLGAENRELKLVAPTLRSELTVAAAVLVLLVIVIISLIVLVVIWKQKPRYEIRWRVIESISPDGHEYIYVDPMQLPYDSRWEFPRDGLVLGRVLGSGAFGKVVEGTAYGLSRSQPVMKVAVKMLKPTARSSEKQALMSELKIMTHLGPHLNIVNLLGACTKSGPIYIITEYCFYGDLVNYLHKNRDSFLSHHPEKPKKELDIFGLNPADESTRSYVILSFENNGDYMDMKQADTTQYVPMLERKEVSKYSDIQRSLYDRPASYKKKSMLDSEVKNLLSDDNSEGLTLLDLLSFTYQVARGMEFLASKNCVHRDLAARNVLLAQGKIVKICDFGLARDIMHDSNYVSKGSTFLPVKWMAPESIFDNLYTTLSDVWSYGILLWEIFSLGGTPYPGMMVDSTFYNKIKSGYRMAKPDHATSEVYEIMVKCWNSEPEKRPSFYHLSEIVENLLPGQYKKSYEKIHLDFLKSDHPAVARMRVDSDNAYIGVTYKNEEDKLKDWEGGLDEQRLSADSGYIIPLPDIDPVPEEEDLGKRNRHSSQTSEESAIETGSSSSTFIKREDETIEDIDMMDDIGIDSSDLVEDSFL
EphA2, sequence (P29317 24-976, species assumed): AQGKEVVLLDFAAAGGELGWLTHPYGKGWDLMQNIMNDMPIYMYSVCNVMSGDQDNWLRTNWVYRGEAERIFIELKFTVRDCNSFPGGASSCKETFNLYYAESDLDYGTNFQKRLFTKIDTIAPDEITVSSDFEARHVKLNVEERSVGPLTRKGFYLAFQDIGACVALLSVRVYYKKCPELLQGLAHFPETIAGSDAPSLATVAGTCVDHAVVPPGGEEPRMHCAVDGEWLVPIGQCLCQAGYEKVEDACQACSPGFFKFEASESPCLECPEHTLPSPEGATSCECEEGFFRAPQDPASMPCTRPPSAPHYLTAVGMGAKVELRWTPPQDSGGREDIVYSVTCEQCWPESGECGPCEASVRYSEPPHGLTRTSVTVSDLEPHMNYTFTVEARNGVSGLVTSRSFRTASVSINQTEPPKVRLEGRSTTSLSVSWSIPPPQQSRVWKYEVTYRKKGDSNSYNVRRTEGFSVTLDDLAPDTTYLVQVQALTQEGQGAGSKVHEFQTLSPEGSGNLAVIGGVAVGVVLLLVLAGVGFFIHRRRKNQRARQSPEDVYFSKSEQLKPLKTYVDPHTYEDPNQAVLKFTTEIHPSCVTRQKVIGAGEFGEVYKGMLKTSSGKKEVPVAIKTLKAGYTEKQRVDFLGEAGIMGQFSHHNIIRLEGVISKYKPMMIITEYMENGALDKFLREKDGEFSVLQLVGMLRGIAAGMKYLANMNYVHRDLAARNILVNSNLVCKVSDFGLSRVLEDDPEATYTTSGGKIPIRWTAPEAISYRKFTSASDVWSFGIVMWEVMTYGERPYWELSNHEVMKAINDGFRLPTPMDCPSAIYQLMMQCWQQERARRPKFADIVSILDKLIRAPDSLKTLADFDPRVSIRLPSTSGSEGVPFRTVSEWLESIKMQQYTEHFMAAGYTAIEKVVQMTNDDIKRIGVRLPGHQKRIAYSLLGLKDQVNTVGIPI

SMILES | IC50 [1] [µM] | IC50 (EphA2) [µM] | IC50 (Flt-1) [µM] | IC50 (EGFR) [µM] | IC50 (PDGFR alpha) [µM] | IC50 (Fyn) [µM] | IC50 (IRK) [µM]
CCN1CCC(Nc2ccc3c(c2)/C(=C(\c2ccc(C)cc2)c2nc4cc(OC)ccc4[nH]2)C(=O)N3)CC1 [Entry 6, (3Z)-5-[(1-ethylpiperidin-4-yl)amino]-3-[[5-(methyloxy)-1 H-benzimidazol-2-yl](4-methylphenyl)methylidene]-1,3-dihydro-2H-indol-2-one] | < 0.05 | 0.5 to 5 | 0.05 to 0.5 | 0.5 to 5 | < 0.05 | < 0.05 | 0.5 to 5
CCN1CCC(Nc2ccc3c(c2)/C(=C(\c2ccc([N+](=O)[O-])cc2)c2nc4ccccc4[nH]2)C(=O)N3)CC1 [Entry 7, (3Z)-3-(1H-benzimidazol-2-yl(4-nitrophenyl)methylidene]-5-[(1-ethylpiperidin-4-yl)amino]-1,3-dihydro-2H-indol-2-one] | < 0.05 | > 5 | 0.05 to 0.5 | 0.5 to 5 | < 0.05 | 0.05 to 0.5 | > 5
COc1ccc2[nH]c(/C(=C3\C(=O)Nc4ccc(NC5CC(C)(C)NC(C)(C)C5)cc43)c3ccccc3)nc2c1 [Entry 10, (3Z)-3-[[5-(methyloxy)-1H-benzimidazol-2-yl](phenyl)methylidene]-5-[(2,2,6,6-tetramethylpiperidin-4-yl)amino]-1,3-dihydro-2H-indol-2-one] | 0.5 to 5 | 0.5 to 5 | 0.5 to 5 | 0.5 to 5 | 0.05 to 0.5 | 0.5 to 5 | 0.5 to 5
CCN1CCC(Nc2ccc3c(c2)/C(=C(\c2ccc(N)cc2)c2nc4ccccc4[nH]2)C(=O)N3)CC1 [Entry 11, (3Z)-3-[(4-aminophenyl)(1H-benzimidazol-2-yl)methylidene]-5-[(1-ethylpiperidin-4-yl)amino]1,3-dihydro-2H-indol-2-one] | < 0.05 | 0.5 to 5 | 0.05 to 0.5 | 0.05 to 0.5 | < 0.05 | < 0.05 | 0.5 to 5
CCN1CCC(Nc2ccc3c(c2)/C(=C(\c2ccc(OC)cc2)c2ncc[nH]2)C(=O)N3)CC1 [Entry 15, (3Z)-5-[(1-ethylpiperidin-4-yl)amino]-3-{1H-imidazol-2-yl[4-(methyloxy)phenyl]methylidene}-1,3-dihydro-2H-indol-2-one] | < 0.05 | 0.5 to 5 | 0.05 to 0.5 | 0.5 to 5 | < 0.05 | < 0.05 | 0.5 to 5
CCN1CCC(Nc2ccc3c(c2)/C(=C(\c2ccc(F)cc2)c2nc4ccccc4[nH]2)C(=O)N3)CC1 [Entry 16, (3Z)-3-[1H-benzimidazol-2-yl(4-fluorophenyl)methylidene]-5[(1-ethylpiperidin-4-yl)amino]-1,3-dihydro-2H-indol-2-one] | < 0.05 | 0.5 to 5 | 0.05 to 0.5 | 0.5 to 5 | < 0.05 | 0.05 to 0.5 | 0.5 to 5
CCN1CCC(Nc2ccc3c(c2)/C(=C(\c2cccc([N+](=O)[O-])c2)c2nc4ccccc4[nH]2)C(=O)N3)CC1 [Entry 19, (3Z)-3-[1H-benzimidazol-2-yl(3-nitrophenyl)methylidene]-5-[(1-ethylpiperidin-4-yl)amino]-1,3-dihydro-2H-indol-2-one] | < 0.05 | 0.5 to 5 | 0.05 to 0.5 | 0.5 to 5 | < 0.05 | 0.05 to 0.5 | 0.5 to 5
CCN1CCC(Nc2ccc3c(c2)/C(=C(\c2cccc(C#N)c2)c2nc4ccccc4[nH]2)C(=O)N3)CC1 [Entry 20, 3-((Z)-1H-benzimidazol-2-yl{5-[(1-ethylpiperidin-4-yl)amino]-2-oxo-1,2-dihydro-3H-indol-3-ylidene)methyl) benzonitrile] | < 0.05 | 0.5 to 5 | 0.5 to 5 | 0.5 to 5 | 0.05 to 0.5 | 0.05 to 0.5 | 0.5 to 5
CCN1CCC(Nc2ccc3c(c2)/C(=C(\c2cccc(N)c2)c2nc4ccccc4[nH]2)C(=O)N3)CC1 [Entry 21, (3Z)-3-[(3-aminophenyl) (1H-benzimidazol-2-yl)methylidene]-5-[(1-ethylpiperidin-4-yl)amino]-1,3-dihydro-2H-indol-2-one] | < 0.05 | 0.5 to 5 | 0.05 to 0.5 | 0.5 to 5 | < 0.05 | 0.05 to 0.5 | 0.5 to 5
O=C1Nc2ccc(NC3CCNCC3)cc2/C1=C(\c1ccccc1)c1nc2ccccc2[nH]1 [Entry 22, (3Z)-3-[1H-benzimidazol-2-yl(phenyl)methylidene] -5-(piperidin-4-ylamino)-1,3-dihydro-2H-indol-2-one] | < 0.05 | 0.05 to 0.5 | 0.05 to 0.5 | 0.5 to 5 | < 0.05 | < 0.05 | 0.05 to 0.5
CCN1CCC(Nc2ccc3c(c2)/C(=C(\c2cccc(C(=N)N)c2)c2nc4ccccc4[nH]2)C(=O)N3)CC1 [Entry 23, 3-((Z)-1H-benzimidazol-2-yl{5-[(1-ethylpiperidin-4-yl)amino]-2-oxo-1,2-dihydro-3H-indol-3-ylidene}methyl) benzenecarboximidamide] | 0.5 to 5 | 0.5 to 5 | 0.5 to 5 | 0.5 to 5 | 0.5 to 5 | 0.5 to 5 | 0.5 to 5
CC1(C)CC(Nc2ccc3c(c2)/C(=C(\c2ccccc2)c2nc4ccccc4[nH]2)C(=O)N3)CC(C)(C)N1 [Entry 25, (3Z)-3-[1H-benzimidazol-2-yl(phenyl)methylidene]-5-[(2,2,6,6-tetramethylpiperidin-4-yl)amino]-1,3-dihydro-2H-indol-2-one] | 0.05 to 0.5 | 0.5 to 5 | 0.5 to 5 | 0.5 to 5 | 0.05 to 0.5 | 0.5 to 5 | 0.5 to 5
CCN1CCC(Nc2ccc3c(c2)/C(=C(\c2ccccc2)c2nc(CCN4C(=O)c5ccccc5C4=O)c[nH]2)C(=O)N3)CC1 [Entry 28, 2-(2-{2-[(Z)-{5-[(1-ethylpiperidin-4-yl)amino]-2-oxo-1,2-dihydro-3H-indol-3-ylidene}(phenyl)methyl]-1H-imidazol-4-yl}ethyl)-1H-isoindole-1,3(2H)-dione] | < 0.05 | 0.5 to 5 | 0.05 to 0.5 | 0.5 to 5 | < 0.05 | 0.05 to 0.5 | 0.5 to 5
CN(C)CCN1CCC(Nc2ccc3c(c2)/C(=C(\c2ccccc2)c2nc4ccccc4[nH]2)C(=O)N3)CC1 [Entry 29, (3Z)-3-[1H-benzimidazol-2-yl(phenyl)methylidene]-5-({1-[2-(dimethylamino)ethyl]piperidin-4-yl}amino)-1,3-dihydro-2H-indol-2-one] | < 0.05 | 0.5 to 5 | 0.5 to 5 | 0.5 to 5 | 0.05 to 0.5 | 0.05 to 0.5 | 0.5 to 5
CS(=O)(=O)N1CCC(Nc2ccc3c(c2)/C(=C(\c2ccccc2)c2nc4ccccc4[nH]2)C(=O)N3)CC1 [Entry 30, (3Z)-3-[1H-benzimidazol-2-yl(phenyl)methylidene]-5-{[1-(methylsulfonyl)piperidin-4-yl]amino}-1,3-dihydro-2H-indol-2-one] | 0.05 to 0.5 | 0.5 to 5 | 0.5 to 5 | 0.5 to 5 | 0.5 to 5 | 0.5 to 5 | 0.5 to 5
O=C1Nc2ccc(NC3CC4CCC(C3)N4)cc2/C1=C(\c1ccccc1)c1nc2ccccc2[nH]1 (stereo not shown) [Entry 31, (3Z)-5-(8-azabicyclo[3.2.1]oct-3-ylamino)-3-[1H-benzimidazol-2-yl(phenyl)methylidene]-1,3-dihydro-2H-indol-2-one] | 0.05 to 0.5 | 0.5 to 5 | 0.5 to 5 | 0.5 to 5 | 0.05 to 0.5 | 0.05 to 0.5 | 0.5 to 5
